In one data set the target is Nav 1.7 (Homo sapiens (Human), UniProt Q15858). Briefly: Inhibition of sodium channels, Red Membrane Potential Dye FLIPR assay, veratridine depolarization. The format is cell-based. Particulars: HEK-293 cells overexpressing the channel.
A further data set concerns the target Nav 1.5 (Homo sapiens (Human), UniProt Q14524). The data set is described as above. In kind it is cell-based. The following applies: HEK-293 cells overexpressing the channel.
Setting [1] is: read-out: Nav1.5 IC50 (bound given in μM).

Structures are written as SMILES. Like-named read-outs stand apart in the source and are kept apart here. A value given as a limit tells only on which side of the number the result lay.

By IC50 is commonly meant the concentration that inhibits the measured activity by half.

Sequence of Nav 1.7 (Q15858 whole entry): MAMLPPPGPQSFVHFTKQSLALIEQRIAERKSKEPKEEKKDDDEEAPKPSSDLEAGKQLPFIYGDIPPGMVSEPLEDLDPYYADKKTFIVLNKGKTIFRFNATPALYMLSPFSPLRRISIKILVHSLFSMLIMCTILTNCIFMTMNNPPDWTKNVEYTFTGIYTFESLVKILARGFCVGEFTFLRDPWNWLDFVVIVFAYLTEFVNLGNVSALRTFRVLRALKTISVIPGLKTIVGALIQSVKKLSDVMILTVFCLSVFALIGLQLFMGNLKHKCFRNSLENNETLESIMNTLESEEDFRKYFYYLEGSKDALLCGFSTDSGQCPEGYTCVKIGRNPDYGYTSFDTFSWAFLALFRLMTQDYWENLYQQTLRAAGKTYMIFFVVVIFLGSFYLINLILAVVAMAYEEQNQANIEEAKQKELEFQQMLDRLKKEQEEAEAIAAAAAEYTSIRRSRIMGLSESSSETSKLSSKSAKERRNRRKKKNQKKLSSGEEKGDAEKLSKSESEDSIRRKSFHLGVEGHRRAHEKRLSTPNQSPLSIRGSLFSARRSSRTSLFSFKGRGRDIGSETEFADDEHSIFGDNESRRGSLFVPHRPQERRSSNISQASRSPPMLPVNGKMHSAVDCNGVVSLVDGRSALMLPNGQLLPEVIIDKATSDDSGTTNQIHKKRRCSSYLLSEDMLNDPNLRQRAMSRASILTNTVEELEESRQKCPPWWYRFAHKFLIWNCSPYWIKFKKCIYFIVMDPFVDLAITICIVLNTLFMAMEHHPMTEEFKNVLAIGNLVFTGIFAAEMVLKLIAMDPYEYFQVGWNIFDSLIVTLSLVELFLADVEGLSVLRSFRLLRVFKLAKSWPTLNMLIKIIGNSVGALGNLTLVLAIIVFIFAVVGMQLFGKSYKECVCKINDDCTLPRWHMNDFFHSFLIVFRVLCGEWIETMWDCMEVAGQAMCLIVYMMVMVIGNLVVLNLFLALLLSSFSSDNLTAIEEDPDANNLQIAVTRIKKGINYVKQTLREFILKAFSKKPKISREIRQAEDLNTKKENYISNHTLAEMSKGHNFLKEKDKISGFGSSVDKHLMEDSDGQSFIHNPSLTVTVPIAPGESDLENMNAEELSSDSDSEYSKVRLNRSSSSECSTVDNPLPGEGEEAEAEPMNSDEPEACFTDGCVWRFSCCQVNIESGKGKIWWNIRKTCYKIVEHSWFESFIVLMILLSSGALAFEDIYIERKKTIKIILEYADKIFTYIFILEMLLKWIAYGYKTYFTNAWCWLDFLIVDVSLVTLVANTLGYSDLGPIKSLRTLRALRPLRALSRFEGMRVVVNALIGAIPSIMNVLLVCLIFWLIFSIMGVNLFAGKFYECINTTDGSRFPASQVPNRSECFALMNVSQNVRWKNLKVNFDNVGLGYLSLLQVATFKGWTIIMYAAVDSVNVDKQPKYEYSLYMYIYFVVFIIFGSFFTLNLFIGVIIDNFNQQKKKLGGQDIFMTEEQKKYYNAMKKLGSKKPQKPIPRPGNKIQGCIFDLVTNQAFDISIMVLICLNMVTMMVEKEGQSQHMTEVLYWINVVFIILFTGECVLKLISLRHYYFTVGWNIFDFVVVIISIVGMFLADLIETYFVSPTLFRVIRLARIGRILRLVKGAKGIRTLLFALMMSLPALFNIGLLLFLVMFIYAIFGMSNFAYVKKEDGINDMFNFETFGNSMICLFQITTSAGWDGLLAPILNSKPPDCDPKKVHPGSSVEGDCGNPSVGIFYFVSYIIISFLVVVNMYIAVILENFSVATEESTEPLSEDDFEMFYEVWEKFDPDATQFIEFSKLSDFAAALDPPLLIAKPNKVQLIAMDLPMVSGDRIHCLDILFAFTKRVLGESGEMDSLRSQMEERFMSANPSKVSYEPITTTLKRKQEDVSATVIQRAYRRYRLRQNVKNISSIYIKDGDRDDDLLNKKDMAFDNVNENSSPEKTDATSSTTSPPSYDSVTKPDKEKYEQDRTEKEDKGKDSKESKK
Sequence of Nav 1.5 (Q14524 whole entry): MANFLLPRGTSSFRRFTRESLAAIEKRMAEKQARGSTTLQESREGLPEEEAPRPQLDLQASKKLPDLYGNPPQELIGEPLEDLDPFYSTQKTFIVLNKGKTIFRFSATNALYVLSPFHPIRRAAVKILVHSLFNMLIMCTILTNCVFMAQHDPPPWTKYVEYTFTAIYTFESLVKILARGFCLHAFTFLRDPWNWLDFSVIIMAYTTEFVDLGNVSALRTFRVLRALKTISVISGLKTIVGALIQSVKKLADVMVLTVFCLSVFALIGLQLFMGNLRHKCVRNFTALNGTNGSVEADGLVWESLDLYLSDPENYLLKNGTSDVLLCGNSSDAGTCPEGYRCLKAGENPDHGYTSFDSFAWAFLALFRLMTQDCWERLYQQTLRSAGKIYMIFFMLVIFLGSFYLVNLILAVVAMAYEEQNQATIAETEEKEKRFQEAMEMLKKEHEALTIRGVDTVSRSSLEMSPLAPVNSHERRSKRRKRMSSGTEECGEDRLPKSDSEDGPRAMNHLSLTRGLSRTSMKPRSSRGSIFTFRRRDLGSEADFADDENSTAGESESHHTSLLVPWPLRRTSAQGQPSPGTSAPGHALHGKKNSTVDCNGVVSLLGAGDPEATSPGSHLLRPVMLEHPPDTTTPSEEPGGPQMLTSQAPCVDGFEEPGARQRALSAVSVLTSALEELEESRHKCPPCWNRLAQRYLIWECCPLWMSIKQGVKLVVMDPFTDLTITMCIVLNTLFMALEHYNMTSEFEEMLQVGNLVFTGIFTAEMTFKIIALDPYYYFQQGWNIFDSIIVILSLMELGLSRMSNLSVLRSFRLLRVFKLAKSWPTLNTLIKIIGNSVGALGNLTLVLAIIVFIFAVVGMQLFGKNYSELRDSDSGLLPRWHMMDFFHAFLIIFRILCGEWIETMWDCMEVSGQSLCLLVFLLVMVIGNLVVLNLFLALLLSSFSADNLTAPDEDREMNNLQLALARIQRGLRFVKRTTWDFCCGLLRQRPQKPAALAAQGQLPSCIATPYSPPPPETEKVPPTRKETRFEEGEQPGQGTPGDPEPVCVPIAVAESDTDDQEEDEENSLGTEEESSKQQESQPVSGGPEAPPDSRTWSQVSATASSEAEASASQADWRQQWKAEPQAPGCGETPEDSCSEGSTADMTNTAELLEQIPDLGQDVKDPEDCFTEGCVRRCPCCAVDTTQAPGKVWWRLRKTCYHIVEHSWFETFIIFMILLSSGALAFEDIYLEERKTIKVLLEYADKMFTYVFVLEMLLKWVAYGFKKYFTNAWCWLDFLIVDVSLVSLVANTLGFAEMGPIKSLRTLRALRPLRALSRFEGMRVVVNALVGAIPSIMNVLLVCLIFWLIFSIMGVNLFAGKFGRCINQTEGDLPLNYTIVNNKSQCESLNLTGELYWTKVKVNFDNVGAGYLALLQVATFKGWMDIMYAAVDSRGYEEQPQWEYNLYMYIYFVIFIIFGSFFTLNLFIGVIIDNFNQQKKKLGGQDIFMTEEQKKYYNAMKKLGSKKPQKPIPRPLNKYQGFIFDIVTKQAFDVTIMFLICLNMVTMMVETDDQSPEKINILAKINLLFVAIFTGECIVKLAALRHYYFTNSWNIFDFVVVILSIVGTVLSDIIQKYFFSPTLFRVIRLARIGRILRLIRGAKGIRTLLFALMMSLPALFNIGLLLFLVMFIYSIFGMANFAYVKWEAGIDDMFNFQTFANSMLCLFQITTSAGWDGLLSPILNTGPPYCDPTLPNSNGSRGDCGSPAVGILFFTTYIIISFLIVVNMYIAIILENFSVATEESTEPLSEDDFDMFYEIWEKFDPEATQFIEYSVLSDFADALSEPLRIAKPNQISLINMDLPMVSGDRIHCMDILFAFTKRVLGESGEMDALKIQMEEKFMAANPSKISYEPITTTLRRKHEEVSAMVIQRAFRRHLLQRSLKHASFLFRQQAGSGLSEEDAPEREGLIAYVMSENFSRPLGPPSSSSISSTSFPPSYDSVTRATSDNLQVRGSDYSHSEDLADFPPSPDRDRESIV

For `O=S(=O)(Nc1ncccn1)c1ccc2c(c1)OCC[C@H]2c1ccc(C(F)(F)F)cc1OC1COC1` [Example-216, (R&S)-4-(2-(oxetan-3-yloxy)-4-(trifluoromethyl)phenyl)-N-(pyrimidin-2-yl)chroman-7-sulfonamide], the results for the IC50 on Nav 1.7 (read-out: Nav1.7 IC50) and at Nav 1.5 (setting [1]) were 2.73 µM and above 10 µM, respectively.
On to `O=S(=O)(Nc1ncccn1)c1ccc2c(c1)OCC[C@@H]2c1ccc(C(F)(F)F)cc1OC1COC1` [Example-217, (R&S)-4-(2-(oxetan-3-yloxy)-4-(trifluoromethyl)phenyl)-N-(pyrimidin-2-yl)chroman-7-sulfonamide], for which the IC50 on Nav 1.7 (read-out: Nav1.7 IC50) stood at 0.152 µM. For the same compound, the “Nav1.5 % inhibition @ 10 μM” value on Nav 1.5 worked out at 50%.
As for `O=S(=O)(Nc1ncccn1)c1ccc2c(c1)OCC[C@H]2c1ccc(C(F)(F)F)cc1OCCCF` [Example-220, (S&R)-4-(2-(3-fluoropropoxy)-4-(trifluoromethyl)phenyl)-N-(pyrimidin-2-yl)chroman-7-sulfonamide], the half-inhibitory concentration (IC50) on Nav 1.7 (read-out: Nav1.7 IC50 (bound given in μM)) and at Nav 1.5 (setting [1]) was above 10 µM throughout.
`O=S(=O)(Nc1ncccn1)c1ccc2c(c1)OCC[C@@H]2c1ccc(C(F)(F)F)cc1OCCCF` [Example-221, (S&R)-4-(2-(3-fluoropropoxy)-4-(trifluoromethyl)phenyl)-N-(pyrimidin-2-yl)chroman-7-sulfonamide]: the IC50 on Nav 1.7 (read-out: Nav1.7 IC50) stood at 0.042 µM; at Nav 1.5 (read-out: Nav1.5 IC50), 1.47 µM.
As for `COc1cc(C(F)(F)F)ccc1[C@@H]1CCOc2cc(S(=O)(=O)Nc3ncccn3)ccc21` [Example-226, (S&R)-4-(2-methoxy-4-(trifluoromethyl)phenyl)-N-(pyrimidin-2-yl)chroman-7-sulfonamide], the IC50 at Nav 1.7 (read-out: Nav1.7 IC50) came to 2.35 µM. Also, the “Nav1.5 % inhibition @ 10 μM” value at Nav 1.5 is on record as 86%.
With `COc1cc(C(F)(F)F)ccc1[C@H]1CCOc2cc(S(=O)(=O)Nc3ncccn3)ccc21` [Example-227, (S&R)-4-(2-methoxy-4-(trifluoromethyl)phenyl)-N-(pyrimidin-2-yl)chroman-7-sulfonamide], the IC50 at Nav 1.7 (read-out: Nav1.7 IC50) was 0.177 µM; at Nav 1.5 (setting [1]), above 10 µM.
`COc1cc(C(F)(F)F)ccc1[C@@H]1CCOc2cc(S(=O)(=O)Nc3cccc(F)n3)ccc21` [Example-228, (S&R)—N-(6-fluoropyridin-2-yl)-4-(2-methoxy-4-(trifluoromethyl)phenyl)chroman-7-sulfonamide]: the “Nav1.7 inhibition @ 10 μM” value at Nav 1.7 stood at 55%. Besides, at Nav 1.5 (setting [1]), the half-maximal inhibitory concentration (IC50) is above 10 µM.
Take `COc1cc(C(F)(F)F)ccc1[C@H]1CCOc2cc(S(=O)(=O)Nc3cccc(F)n3)ccc21` [Example-229, (S&R)—N-(6-fluoropyridin-2-yl)-4-(2-methoxy-4-(trifluoromethyl)phenyl)chroman-7-sulfonamide]: the IC50 on Nav 1.7 (read-out: Nav1.7 IC50) worked out at 0.156 µM. Besides, the “Nav1.5 % inhibition @ 10 μM” value at Nav 1.5 came out at 42%.
Consider `O=C1COCCN1c1cc(C(F)(F)F)ccc1[C@@H]1CCOc2cc(S(=O)(=O)Nc3ncccn3)ccc21` [Example-230, (S&R)-4-(2-(3-oxomorpholino)-4-(trifluoromethyl)phenyl)-N-(pyrimidin-2-yl)chroman-7-sulfonamide], for which the IC50 is 4.42 µM at Nav 1.7 (read-out: Nav1.7 IC50) and above 10 µM at Nav 1.5 (setting [1]).
With `O=C1COCCN1c1cc(C(F)(F)F)ccc1[C@H]1CCOc2cc(S(=O)(=O)Nc3ncccn3)ccc21` [Example-231, (S&R)-4-(2-(3-oxomorpholino)-4-(trifluoromethyl)phenyl)-N-(pyrimidin-2-yl)chroman-7-sulfonamide], the IC50 on Nav 1.7 (read-out: Nav1.7 IC50) was 0.559 µM; at Nav 1.5 (setting [1]) it was above 10 µM.
As for `O=S1(=O)CCN(c2cc(C(F)(F)F)ccc2[C@@H]2CCOc3cc(S(=O)(=O)Nc4ncccn4)ccc32)CC1` [Example-232, (S&R)-4-(2-(1,1-dioxidothiomorpholino)-4-(trifluoromethyl)phenyl)-N-(pyrimidin-2-yl)chroman-7-sulfonamide], the “Nav1.7 inhibition @ 10 μM” value on Nav 1.7 was 36%. In addition, the IC50 on Nav 1.5 (setting [1]) is above 10 µM.
Regarding `CCCc1cc(C(F)(F)F)ccc1[C@@H]1CCOc2cc(S(=O)(=O)Nc3ncccn3)ccc21` [Example-238, (S&R)-4-(2-propyl-4-(trifluoromethyl)phenyl)-N-(pyrimidin-2-yl)chroman-7-sulfonamide], the figures for the IC50 on Nav 1.7 (read-out: Nav1.7 IC50) and at Nav 1.5 (setting [1]) were 1.76 µM and above 10 µM, respectively.
For the compound `CCCc1cc(C(F)(F)F)ccc1[C@H]1CCOc2cc(S(=O)(=O)Nc3ncccn3)ccc21` [Example-239, (S&R)-4-(2-propyl-4-(trifluoromethyl)phenyl)-N-(pyrimidin-2-yl)chroman-7-sulfonamide], at Nav 1.7 (read-out: Nav1.7 IC50), the 50% inhibitory concentration (IC50) worked out at 0.124 µM. For the same compound, the “Nav1.5 % inhibition @ 10 μM” value at Nav 1.5 is recorded as 62%.
On to `CCCc1cc(C(F)(F)F)ccc1[C@@H]1CCOc2cc(S(=O)(=O)Nc3ncc(F)cn3)ccc21` [Example-240, (S&R)—N-(5-fluoropyrimidin-2-yl)-4-(2-propyl-4-(trifluoromethyl)phenyl)chroman-7-sulfonamide], for which the IC50 at Nav 1.7 (read-out: Nav1.7 IC50) is 2.74 µM; on Nav 1.5 (setting [1]) it was above 10 µM.
The corresponding values for `CCCc1cc(C(F)(F)F)ccc1[C@H]1CCOc2cc(S(=O)(=O)Nc3ncc(F)cn3)ccc21` [Example-241, (S&R)—N-(5-fluoropyrimidin-2-yl)-4-(2-propyl-4-(trifluoromethyl)phenyl)chroman-7-sulfonamide] are 0.172 µM and above 10 µM.
With `CCCc1cc(C(F)(F)F)ccc1C1CCOc2cc(S(=O)(=O)Nc3cccnn3)ccc21` (stereo not shown) [Example-242], the results for the IC50 on Nav 1.7 (read-out: Nav1.7 IC50) and at Nav 1.5 (read-out: Nav1.5 IC50) were 1.05 µM and 3.65 µM, respectively.
The corresponding values for `CCCc1cc(C(F)(F)F)ccc1C1CCOc2cc(S(=O)(=O)Nc3cccnn3)ccc21` (stereo not shown) [Example-243] are 0.092 µM and 2.41 µM.
In the case of `CCCc1cc(C(F)(F)F)ccc1[C@@H]1CCOc2cc(S(=O)(=O)Nc3cccc(F)n3)ccc21` [Example-244, (S&R)—N-(6-fluoropyridin-2-yl)-4-(2-propyl-4-(trifluoromethyl)phenyl)chroman-7-sulfonamide], the IC50 at Nav 1.7 (read-out: Nav1.7 IC50) is 0.474 µM. Further, the “Nav1.5 % inhibition @ 10 μM” value at Nav 1.5 was 69%.
The corresponding values for `CCCc1cc(C(F)(F)F)ccc1[C@H]1CCOc2cc(S(=O)(=O)Nc3cccc(F)n3)ccc21` [Example-245, (S&R)—N-(6-fluoropyridin-2-yl)-4-(2-propyl-4-(trifluoromethyl)phenyl)chroman-7-sulfonamide] are 0.041 µM and 75%.
Consider `O=C(O)c1ccc(-c2cc(C(F)(F)F)ccc2[C@H]2CCOc3cc(S(=O)(=O)Nc4ncc(F)cn4)ccc32)cc1` [compound 190, (S&R)-2′-(7-(N-(5-fluoropyrimidin-2-yl)sulfamoyl)chroman-4-yl)-5′-(trifluoromethyl)-[1,1′-biphenyl]-4-carboxylic acid], for which the IC50 on Nav 1.7 (read-out: Nav1.7 IC50) was 0.257 µM; at Nav 1.5 (setting [1]) it was above 10 µM.

The values are drawn from US10239869B2, “Sulfonamide compounds as voltage-gated sodium channel modulators” (LUPIN LIMITED, priority 2015, dated 2019).
